Measured values reported in EP4755888A1 (ILAb Co., Ltd., priority 2023, dated 2025).
pEC50, pIC50: −log10 of the molar value.

How the values were obtained:
PD-1/PD-L1 [1] = target: PD-1/PD-L1 (Homo sapiens, UniProt Q9NZQ7); experiment: TR-FRET PD-1/PD-L1 binding inhibition at the molecular level (free proteins); settings: Tag1-PD-L1 and Tag2-PD-1 proteins, twelve concentrations from 200 nM, 2 hours at room temperature, read-out: FRET assay (IC50)
Summary of the method: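 HTRF read-out at 665/620 nm after 2 h at room temperature. Detection used anti-Tag1 Eu cryptate plus anti-Tag2 XL665 antibodies. Tagged PD-L1 and PD-1 proteins were pre-mixed with compound across twelve […] 1:2 dilutions starting at 200 nM.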

tumor = tumor growth inhibition in a group administered with the compound (FIG. 1); format: in vivo; settings: graph of FIG. 1; group administered with Compound 218; no numbers printed in this part
MC38 hPD-L1 = experiment: Tumor growth inhibition in MC38 hPD-L1 subcutaneous mouse model; format: in vivo; settings: 50 mg/kg intraperitoneally once daily, female C57BL/6 mice
Protocol: In order to evaluate whether the tumor inhibitory effects of the compounds synthesized according to the above Preparation Examples are also effective in vivo, animal experiments were conducted as described below.
A mouse colon cancer cell line expressing human PD-L1 (MC38 hPD-L1) was prepared at a density of 1.25 x 10^6 cells in 100 µL of DPBS and inoculated subcutaneously into the flank of 6-week-old female C57BL/6 mice. When the average tumor volume reached approximately 50 mm^3, the mice were divided into three experimental groups, with eight mice per group. Vehicle and Compound 218 (50 mg/kg) were administered intraperitoneally once daily, while Durvalumab (anti-PD-L1 mAb) was administered intraperitoneally twice per week. Tumor volume and body weight were measured every three days.

[2] = target: T1, PD-L1 expressed on the cell surface (MC38 hPD-L1) (Homo sapiens, UniProt Q9NZQ7); experiment: Internalization of cell surface PD-L1, flow cytometry with fluorescent staining; format: cell-based; settings: MC38 hPD-L1 cells, 1 µM, 4 hours; untreated 90% to 99%
T1 construct: expressed in transfected cells; host or cells: MC38 mouse colon cancer cell line expressing human PD-L1
Protocol: In order to evaluate the internalization of cell surface PD-L1 induced by the compounds of the present invention synthesized according to the above Preparation Examples, a flow cytometry experiment using fluorescent staining was conducted as described below.
Specifically, a mouse colon cancer cell line expressing human PD-L1 (MC38 hPD-L1) was seeded into a 24-well plate at a density of 5 x 10^5 cells per well, followed by treatment with Compounds 206 to 227 at a concentration of 1 µM and incubation for 4 hours. After 4 hours, the compound-treated MC38 hPD-L1 cells were collected and stained with PE anti-hPD-L1 fluorecence at room temperature for 30 minutes. The rate of PD-L1 expression on the cell surface was then quantified using flow cytometry.

hPD-L1 = hPD-L1 (Homo sapiens, UniProt Q9NZQ7); experiment: TR-FRET dimerization of hPD-L1 molecules; format: biochemical
Protocol: In order to evaluate the dimerization of hPD-L1 molecules induced by the compounds of the present invention synthesized according to the above Preparation Examples, a TR-FRET (Time-Resolved Fluorescence Energy Transfer) experiment was performed as described below.
Specifically, the compounds were prepared in a 96-well plate by serial dilution starting from 10 µM with 1/3 dilutions to obtain a total of twelve concentrations. Thereafter, 2 µL of each compound solution was added to a 384-well plate. Fc tag-hPD-L1 protein and His tag-hPD-L1 protein were each prepared at a 1x concentration, mixed at a ratio of 1:1 of above two proteins, and 8 µL of the mixed protein solution was added to each well of the 384-well plate containing the compounds, followed by incubation at room temperature for one day. On the following day, Anti-6His-Tb Cryptate Gold antibody and Anti-human IgG-XL665 antibody were each prepared at a 1x concentration, mixed at a ratio of 1:1, and 10 µL of the mixed antibody solution was added to each well of the 384-well plate containing the compounds and proteins, followed by incubation at room temperature for 2 hours. Upon completion of the reaction, fluorescence signals at wavelengths of 620 nm and 665 nm were measured using a microplate reader.

PD-1/PD-L1 [3] = experiment: PD-1/PD-L1 blockade bioassay at the cellular level (PD-L1 aAPC/CHO-K1 cells + PD-1 Effector T cells, luciferase); format: cell-based; settings: Homo sapiens, T-cell; PD-L1 aAPC/CHO-K1 cells with PD-1 Effector T cells, 6 hours, luminescence; read-out: PD-1/PD-L1 Inhibitory Activity EC50
Protocol: In order to evaluate the effect of the compounds of the present invention, synthesized according to the above Preparation Examples, on blocking signal transduction between PD-1/PD-L1-expressing cells, a PD-1/PD-L1 blockade bioassay was conducted as described below.
Specifically, PD-L1 aAPC/CHO-K1 cells engineered to express human PD-L1 were seeded into a 96-well white plate and cultured for one day. On the following day, the compounds were prepared in a 96-well plate by serial dilution at concentrations starting from 10 µM and 5 µM, followed by 1/4 dilutions to obtain a total of ten concentrations. The culture medium in the plate seeded with the PD-L1 aAPC/CHO-K1 cell line was removed, and 40 µL of each prepared compound solution was added to a 96-well plate. Thereafter, 40 µL of PD-1 Effector T cell line engineered to express human PD-1 was additionally added, and then cultured for 6 hours. After 6 hours, 80 µL of Bio-Glo luciferase buffer was added to each well, followed by incubation at room temperature for 10 minutes, and luminescence was measured using a microplate reader.

Sequence of hPD-L1 (Q9NZQ7 19-238 limits assumed): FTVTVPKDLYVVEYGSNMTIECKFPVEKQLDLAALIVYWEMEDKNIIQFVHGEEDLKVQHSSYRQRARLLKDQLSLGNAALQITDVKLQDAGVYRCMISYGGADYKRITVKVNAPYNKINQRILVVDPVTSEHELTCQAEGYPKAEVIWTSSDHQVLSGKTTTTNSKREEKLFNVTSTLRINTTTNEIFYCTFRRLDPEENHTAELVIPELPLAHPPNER
Sequence of hPD-L1 (Q9NZQ7 19-238 limits assumed): as above
T1 sequence (Q9NZQ7 19-290): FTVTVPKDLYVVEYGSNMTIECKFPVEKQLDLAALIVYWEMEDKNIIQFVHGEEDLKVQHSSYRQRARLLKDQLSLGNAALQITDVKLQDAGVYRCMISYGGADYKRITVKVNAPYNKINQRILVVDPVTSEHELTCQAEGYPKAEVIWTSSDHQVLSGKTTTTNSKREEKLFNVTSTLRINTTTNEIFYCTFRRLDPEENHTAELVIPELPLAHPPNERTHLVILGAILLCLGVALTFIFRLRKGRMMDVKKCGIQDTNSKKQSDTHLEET
Sequence of PD-1/PD-L1 (Homo sapiens, UniProt Q9NZQ7) (Q9NZQ7 19-238 limits assumed): as the sequence (Q9NZQ7 19-238 limits assumed) above

Question: How did the pIC50 (PD-1/PD-L1 [1]) turn out when `O=C(O)CN[C@H]1CCCn2nc(C(=O)Nc3cccc(-c4cccc(Nc5nccc6cc(CN7CC[C@@H](O)C7)cnc56)c4Cl)c3Cl)cc21` [Compound 218, 2-(((S)-2-((2,2'-dichloro-3'-((3-(((R)-3-hydroxypyrrolidin-1-yl)methyl)-1,7-naphthyridin-8-yl)amino)-[1,1'-biphenyl]-3-yl)carbamoyl)-4,5,6,7-tetrahydropyrazolo[1,5-a]pyridin-4-yl)amino)acetic acid] was run?
Answer: > 8.00

Question: What about the “tumor growth inhibitory effect” value (tumor) of the same compound?
Answer: tumor growth inhibitory effect

Question: And the “tumor growth inhibition compared to the vehicle-treated group” value (MC38 hPD-L1; Figure 1)?
Answer: significant inhibition of tumor growth

Question: And the “change in body weight of mice” value (MC38 hPD-L1; Figure 2)?
Answer: no change in body weight

Question: And the “Cell surface PD-L1 expression level (%)” value [2]?
Answer: 0.3%

Question: And the pEC50 (hPD-L1; Fc tag-hPD-L1 and His tag-hPD-L1, twelve concentrations from 10 µM)?
Answer: 8.21

Question: And the “induction of dimerization of hPD-L1 molecules (in words)” value (hPD-L1; summary of Table 3)?
Answer: effectively induced dimerization of hPD-L1 molecules at the nanomolar level

Question: What about the pEC50 (PD-1/PD-L1 [3]) of the same compound?
Answer: 7.72
